Experimental data taken from ChEMBL document CHEMBL3988442, “University of Dundee, Small-Polar-MMV Screening Library” (2021).
“And” between values parts separate entries of the source, which are not always exact repeats. Equal entries are not always repeated.

Tested on: Plasmodium falciparum
Experiment: Calibr Malaria Delayed Death Assay SOP
Format: functional, organism-based
Conditions: for IC50: Plasmodium falciparum

SMILES	pIC50	IC50
CN(C)CCn1nc(C2CCN(Cc3ccccc3)C2)c2cccnc21 (configuration not stated)	5.827	2240 nM
COc1ccc(C(=O)NCCCOC(C)c2ccccc2)c(OC)c1 (configuration not stated)	6.022	763 nM
OCCN1CCC(CNCc2ccc(Br)cc2)CC1	6.334	364 nM
O=C(c1ccccc1)C1CCN(Cc2cc3c(cc2O)CCC3)CC1	6.259	613 nM
CC(NCC1CCN(CCO)CC1)c1ccc(F)c(Cl)c1 (configuration not stated)	6.184	758 nM
CC(NCC1CCN(CCO)CC1)c1ccc(OC(F)(F)F)cc1 (configuration not stated)	6.465	343 nM
CC(NCC1CCN(CCO)CC1)c1cccc(Cl)c1 (configuration not stated)	6.336	442 nM
CC(NCC1CCN(CCO)CC1)c1ccc(Cl)cc1 (configuration not stated)	6.133	671 nM
COc1ccccc1C(C)(C)NCc1ccc(C)o1	5.785	1220 nM
COc1ccc(CN2CCNC(=O)CC2)cc1SC(F)(F)F	6.078	754 nM
CCN(CC)Cc1ccccc1NC(=O)N(C)Cc1ccccc1O	6.076	765 nM
COCCOc1ccccc1CNCC1COC2(CCCC2)O1 (configuration not stated)	6.238	727 nM
CCc1cc(CNCc2ccccc2N(C)C2CCN(C)CC2)on1	6.107	828 nM
CN1CCC(N(C)c2ccccc2CNCc2ccco2)CC1	6.649	157 nM
Cc1noc(C)c1CNCc1ccccc1N(C)C1CCN(C)CC1	6.243	489 nM
CC(=O)N(c1ccc(F)cc1)c1nc(CN2CCCC2C(C)C)cs1 (configuration not stated)	6.177	479 nM
CC(=O)N(c1ccc(C)cc1)c1nc(CN2CCCC(C)C2)cs1 (configuration not stated)	5.762	1610 nM
CCC(NCc1ccccc1Cl)c1ccccc1OCC(=O)NC (configuration not stated)	6.134 and 5.792	
CCC(NCc1ccccc1C)c1ccccc1OCC(=O)NC (configuration not stated)	6.158	731 nM
CCC(NCc1cccc(Cl)c1)c1ccccc1OCC(=O)NC (configuration not stated)	6.073	1370 nM
COc1ccc(Cn2nnnc2SCC2CCCN(C)C2)cc1 (configuration not stated)	5.834	1090 nM
CC(C)Oc1ccc(C(O)CNCc2ccccc2C(F)(F)F)cc1 (configuration not stated)	5.963	1150 nM
Cc1ccccc1CNCC(O)c1ccc(OC(C)C)cc1 (configuration not stated)	6.206	637 nM

SMILES	pIC50	IC50
Cc1cc(N2CCC(NC(C)Cc3ccsc3)CC2)nc(C)n1 (configuration not stated)	6.277	508 nM
O=C(NCC1CCN(CCc2ccccc2)C1)c1cc(Cl)c[nH]1 (configuration not stated)	5.911	1260 nM
COCC(O)CN(C)c1ccnc2cc(Br)ccc12 (configuration not stated)	6.091	834 nM
Cc1cc(NC(=O)NC2CCN(C(C)C)CC2)c2ncccc2c1	5.97	796 nM
CN1CCN(c2ccccc2NC(=O)NCCc2ccccc2)CC1	6.032	998 nM
CN(CCc1cccc2ccccc12)Cc1nc(N)nc(N(C)C)n1	5.915	1240 nM
Brc1cccc(C2(CNCc3cc[nH]c3)CCOCC2)c1	6.135	829 nM
COCCC1(CNC(=O)Nc2ccnc(C)c2)CCCC1	6.054	876 nM
CN1CCN(S(=O)(=O)c2ccc(Cl)c(Cl)c2)c2cnccc21	6.238	557 nM
CC(C)C(CNCc1cccc2c1OCO2)N1CCOCC1 (configuration not stated)	6.558	429 nM
Cc1n[nH]cc1CNC1(c2ccc(F)cc2)CCCC1	6.295	584 nM
CC(NCCN1CCC(N(C)C)CC1)c1ccc(Cl)s1 (configuration not stated)	6.149	996 nM
NC(=O)CN1CCC(Nc2ccnc3ccc(Cl)cc23)CC1	6.054	761 nM
Cc1cccc(C2(NCCCS(C)(=O)=O)CCCC2)c1	6.254	659 nM
Cc1cn2c(n1)C(CNCc1ccc(C)s1)CCC2 (configuration not stated)	6.227	722 nM
O=C(CN1CCCC(c2ccn[nH]2)C1)Nc1nc2c(s1)CCCC2 (configuration not stated)	6.624	248 nM
Cc1cc(Br)cnc1NCCN1CCC(N(C)C)CC1	6.294	472 nM
COCCCN1CCCN(C(C)C(=O)Nc2cccc(I)c2)CC1 (configuration not stated)	6.54	483 nM
c1cc(-c2n[nH]cc2-c2ccnc(N3CCCC3)n2)ccn1	7.446	30.5 nM
c1cc(-c2n[nH]cc2-c2ccnc(N3CCCCCC3)n2)ccn1	8.34	4.12 nM
OC[C@@H]1CCCN1c1nccc(-c2c[nH]nc2-c2ccncc2)n1	6.195	764 nM
CC(C)[C@H](CO)Nc1nccc(-c2c[nH]nc2-c2ccncc2)n1	5.945	1130 nM
CNc1cc(C)nc(NC2CCCN(C3Cc4ccccc4C3)C2)n1 (configuration not stated)	6.074	775 nM

SMILES	pIC50	IC50
CN(Cc1ccsc1)c1nc(-c2ccccn2)nc2c1CCNCC2	6.41	399 nM
CN(CCO)C[C@@H]1CN(C2CCN(c3ccccc3Cl)CC2)C[C@@H]1CO	6.408	316 nM
CN(CCO)Cc1cc(Cl)ccc1OCC(O)CN1CCCCCC1 (configuration not stated)	6.095	765 nM
Oc1cccc2ccc(CN3CCC4(CCNCC4)C3)nc12	6.257	736 nM
Cn1cc(CN2CCCC(CCc3ccccc3C(F)(F)F)C2)cn1 (configuration not stated)	6.083	726 nM
CN(Cc1ccoc1)C(=O)C1(Oc2ccc(Cl)cc2)CCNCC1	6.021	977 nM
Cn1nc(CN2CCCCC(N)C2)c2c(Cl)cccc21 (configuration not stated)	6.151	800 nM
Cc1ncc(CN(C)C2CCCN(CCc3ccccc3)C2)n1C (configuration not stated)	6.013	783 nM
COc1cccc(CN2CC(=O)N(c3ccccc3C)CC2C)c1OC (configuration not stated)	5.928	1420 nM
CC(C)=CCN1CCC2(CC1)c1ccccc1[C@@H](N1CCSCC1)[C@@H]2O	5.994	991 nM
CCC[C@H]1CN(S(=O)(=O)c2ccc(-c3c(C)noc3C)s2)C[C@@H]1N	6.179	798 nM
c1ccc(C2CN(C3CC3)CC3(CCN(Cc4ncc[nH]4)CC3)C2)cc1 (configuration not stated)	6.233 and 5.873	
CCCOc1ccc2ccccc2c1CN1CC[C@@]2(O)CCNC[C@H]2C1	6.043	924 nM
Cn1cc(CN2CCCC(CCc3ccc(F)cc3)C2)cn1 (configuration not stated)	5.962	1060 nM
CCN1CC(c2ccccc2)CC2(CCN(Cc3ncc[nH]3)CC2)C1 (configuration not stated)	6.147	799 nM
Cc1cccc(CN2CCC(Cc3ccccc3F)CC2)n1	6.094	776 nM
CCN1CCN(C[C@@H]2CN(c3ncc(Cl)cc3F)C[C@@H]2CO)CC1	6.156	651 nM
CN[C@@H](C)C(=O)N(Cc1cccc(C)c1)Cc1ccccc1OC	6.428	316 nM
CN(Cc1ccccc1-n1cccn1)C[C@@H]1CCCN2CCCC[C@H]12	6.129	852 nM
Cc1cc(-n2cccn2)ccc1CN1CCOCC(CN(C)C)C1 (configuration not stated)	6.139	673 nM
CC(C)CN1CCCC1c1ccc(C(=O)Nc2cccnc2)s1 (configuration not stated)	6.101	537 nM
CCN(CC)CCN(C)c1nc(-c2ccc(Cl)cc2)nc2c1CNC2	6.071	1020 nM
COc1cccc(CN(C)Cc2[nH]c3ccccc3c2C)c1O	6.46	310 nM

SMILES	pIC50	IC50
CCc1ccc2nc(NCCCN(CCO)CCO)cc(C)c2c1	6.107	809 nM
CC1CN(Cc2ccccc2Cn2cccn2)CCN1C (configuration not stated)	6.079	1080 nM
CC(C)(C)n1cc(C2=CCN(CCN3CCCCCC3)CC2)cn1	5.987	994 nM
NC1(C(=O)NCC2CCCN(Cc3ccccc3F)C2)CCCC1 (configuration not stated)	6.224	470 nM
c1ccc(Oc2nccc3occc23)c(CN2CCCCC2)c1	6.272	735 nM
CC(C)[C@@H]1CN(C(=O)C2(c3ccccc3)CCN(C)CC2)C[C@H]1N(C)C	6.113	710 nM
CCc1ccc(CN(CCN(C)C)Cc2ccc(C)s2)nc1	6.04	965 nM
CN1CCC(N(C)C[C@H]2CC[C@@H](Cc3ccc4occc4c3)O2)CC1	6.011	993 nM
Cc1cccc2[nH]c(-c3cn(C4CCNCC4)nn3)nc12	6.226	597 nM
CSc1ccc(-c2nc(CN3CCC(CN)C3)c(C)o2)cc1 (configuration not stated)	5.962 and 5.805 and 6.058	1020 nM
C=Cc1cccc(CN2C[C@@H](CN(C)CC)[C@@H](CO)C2)c1	5.976	1050 nM
O=C(c1scc2c1OCCO2)N1CCOC(CCc2ccccc2)C1 (configuration not stated)	6.32	386 nM
C[C@@H]1CN(C(=O)C2CCS(=O)(=O)CC2)CC[C@@]1(O)C1CCOCC1	6.055	998 nM
Cc1cc(F)ccc1-c1ccccc1CC1CNCCNC1=O.Cl (configuration not stated)	6.113	1190 nM
Cl.Fc1cccc(F)c1Cn1c(C2CCCNC2)cc2cccnc21 (configuration not stated)	6.143	1050 nM
Cl.Fc1ccccc1Cn1c(C2CCNCC2)cc2cccnc21	6.466	293 nM
COc1cccc(Cn2c(C3CCNCC3)cc3cccnc32)c1.Cl	6.096	931 nM
COc1ccccc1C1(NCc2c(C)nc3c(C)cccn23)CCCC1.Cl	6.178	748 nM
COc1cccc([C@H]2CN(C(C)=O)[C@@H]3CCN(Cc4ccsc4)C[C@H]23)c1.Cl	5.897	1070 nM
Cc1ccc2c(c1)CN(C(=O)C1CCCCC1)C(CN(C)C)CO2.Cl (configuration not stated)	6.082	880 nM
Cl.NCC1(c2cccc(Br)c2)CCOCC1	6.127	705 nM
CN(C)[C@@H]1CCN(S(=O)(=O)C2CC2)[C@H]1Cc1ccccc1.O=C(O)C(F)(F)F	5.682	2830 nM
CCC(CN1CCCCC1)NC(=O)C1(c2ccc(F)cc2)CC1.O=C(O)CC(O)(CC(=O)O)C(=O)O (configuration not stated)	6.19	709 nM
